Assay results reported in article PMC6152123, “Sites for Dynamic Protein-Carbohydrate Interactions of O- and C-Linked Mannosides on the E. coli FimH Adhesin” (Molecules : A Journal of Synthetic Chemistry and Natural …, 2017).
Where “and” joins values, the source holds several entries; their conditions need not be identical. Equal values may be shown once. Read-outs that look alike come from different tables or passages of the source.

What was measured:
FimH = conditions: Tables 1-3; read-out: Kd ITC (converted); cited from earlier work
FimH lectin domain [1] = molecular target: T1, FimH lectin domain (Escherichia coli, UniProt P08191); test: biochemical; type: binding, E. coli strain J96
FimH lectin domain [2] = molecular target: T1, FimH lectin domain; conditions: read-out: Kd SPR; solution affinity by SPR; cited from earlier work
FimH lectin domain [3] = molecular target: T1, FimH lectin domain; test: SPR direct binding of FimH to receptor immobilized on sensor chip (steady state affinity); set-up: species or system E. coli strain J96; conditions: Ss: steady state affinity (Kd), direct binding of FimH to 5b coupled to CM5 sensor chip
Experimental: The equilibrium dissociation constant Kd of FimH for the mannose derivatives was determined using a competition assay in solution. In this assay, the mannose derivatives compete with an immobilized Fab fragment from the monoclonal anti-FimH antibody 1C10 or with an immobilized 8-aminooctyl α-D-mannopyranoside (5b) for FimH binding, as described earlier [34]. The global kinetic constants ka, kd and Rmax of the FimH-ligand interaction of binding were fitted using the BiaEval software.

[4] = Figure S19, fit of solution affinity model to inhibition curve
[5] = KD(M), Figure S19, fit of solution affinity model to inhibition curve
[6] = Kd SPR (nM), solution affinity by SPR competition, Tables 1-3

T1 sequence (P08191 22-179 limits assumed): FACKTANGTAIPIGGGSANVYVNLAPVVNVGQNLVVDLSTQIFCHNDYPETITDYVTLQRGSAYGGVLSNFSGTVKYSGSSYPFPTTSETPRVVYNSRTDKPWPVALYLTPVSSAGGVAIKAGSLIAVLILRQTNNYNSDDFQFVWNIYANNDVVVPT

Compound | Kd (FimH lectin domain [1]; [6]) | also measured
CCCCO[C@H]1O[C@H](CO)[C@@H](O)[C@H](O)[C@@H]1O [Compound 4, reference compound] | – | Kd (FimH): 0.156 µM
CCCCCCCO[C@H]1O[C@H](CO)[C@@H](O)[C@H](O)[C@@H]1O [Compound 5, heptyl α-D-mannopyranoside, reference compound] | – | KA (FimH lectin domain [1]; [4]): 231691100 M⁻¹; Kd (FimH lectin domain [1]; [5]): 4.32e-09 M; Kd (FimH lectin domain [2]): 0.0043 ± 0.0003 µM; Kd (FimH): 0.0073 µM
CCCCCCCCO[C@H]1O[C@H](CO)[C@@H](O)[C@H](O)[C@@H]1O [Compound 5a, octyl α-D-mannopyranoside, reference compound] | – | KA (FimH lectin domain [1]; [4]): 46550590.5 M⁻¹; Kd (FimH lectin domain [1]; [5]): 2.15e-08 M; Kd (FimH lectin domain [2]): 0.021 ± 0.0002 µM
NCCCCCCCCO[C@H]1O[C@H](CO)[C@@H](O)[C@H](O)[C@@H]1O [Compound 5b, 8-aminooctyl α-D-mannopyranoside] | 1.8e-08 ± 4e-10 M | Kd (FimH lectin domain [3]): 0.0169 µM and 0.017 µM
OC[C@H]1O[C@H](OC/C=C/c2ccccc2)[C@@H](O)[C@@H](O)[C@@H]1O [Compound 22] | 5.3e-08 ± 7.5e-09 M | –
OC[C@H]1O[C@H](OC/C=C/c2ccc(-c3ccccc3)cc2)[C@@H](O)[C@@H](O)[C@@H]1O [Compound 23] | 3e-09 ± 1.1e-09 M | –
OC[C@H]1O[C@H](OC/C=C/c2ccccc2-c2ccccc2)[C@@H](O)[C@@H](O)[C@@H]1O [Compound 24] | 4.3e-09 ± 8e-10 M | –
OC[C@H]1O[C@H](OC/C=C/c2cccc3ccccc23)[C@@H](O)[C@@H](O)[C@@H]1O [Compound 25] | 5e-09 ± 1.4e-09 M | Kd (FimH): 0.071 µM
OC[C@H]1O[C@H](OCCCc2ccccc2)[C@@H](O)[C@@H](O)[C@@H]1O [Compound 26] | 5.9e-08 ± 8.5e-09 M | –
OC[C@H]1O[C@H](OCCCc2ccc(-c3ccccc3)cc2)[C@@H](O)[C@@H](O)[C@@H]1O [Compound 27] | 1e-08 ± 2e-10 M | Kd (FimH): 0.0015 µM
OC[C@H]1O[C@H](OCCCc2ccccc2-c2ccccc2)[C@@H](O)[C@@H](O)[C@@H]1O [Compound 28] | 1.3e-08 ± 1.7e-09 M | –
OC[C@H]1O[C@H](OCCCc2cccc3ccccc23)[C@@H](O)[C@@H](O)[C@@H]1O [Compound 29] | 2.2e-08 ± 3e-09 M | –
OC[C@H]1O[C@H](OCCCSCc2ccccc2)[C@@H](O)[C@@H](O)[C@@H]1O [Compound 35] | 1.6e-08 ± 2.4e-09 M | –
CCCCSCCCO[C@H]1O[C@H](CO)[C@@H](O)[C@H](O)[C@@H]1O [Compound 36] | 2.2e-08 ± 2.7e-09 M | –
CCCSCCCO[C@H]1O[C@H](CO)[C@@H](O)[C@H](O)[C@@H]1O [Compound 37] | 1.4e-08 ± 5e-09 M | –
CCSCCCO[C@H]1O[C@H](CO)[C@@H](O)[C@H](O)[C@@H]1O [Compound 38] | 1.4e-08 ± 7.6e-09 M | –
CC(C)SCCCO[C@H]1O[C@H](CO)[C@@H](O)[C@H](O)[C@@H]1O [Compound 39] | 1.1e-08 ± 6.1e-09 M | –
C#CCO[C@H]1O[C@H](CO)[C@@H](O)[C@H](O)[C@@H]1O [Compound 41] | 4.9e-07 ± 5.5e-08 M | –
OC[C@H]1O[C@H](OCC#Cc2ccccc2)[C@@H](O)[C@@H](O)[C@@H]1O [Compound 50] | 1.68e-07 ± 1.5e-08 M | –
OC[C@H]1O[C@H](OCC#Cc2ccc(-c3ccccc3)cc2)[C@@H](O)[C@@H](O)[C@@H]1O [Compound 51] | 4.05e-07 ± 2.4e-08 M | –
OC[C@H]1O[C@H](OCC#Cc2ccccc2-c2ccccc2)[C@@H](O)[C@@H](O)[C@@H]1O [Compound 52] | 2.25e-06 ± 2.91e-07 M | –
OC[C@H]1O[C@H](OCC#Cc2cccc3ccccc23)[C@@H](O)[C@@H](O)[C@@H]1O [Compound 53] | 1.2e-07 ± 1.8e-08 M | –
OC[C@H]1O[C@H](OCC#Cc2cccs2)[C@@H](O)[C@@H](O)[C@@H]1O [Compound 54] | 1.33e-07 ± 3.1e-08 M | –
OC[C@H]1O[C@H](OCC#Cc2cccnc2)[C@@H](O)[C@@H](O)[C@@H]1O [Compound 55] | 8.3e-08 ± 5.6e-09 M | –
COc1ccc(C#CCO[C@H]2O[C@H](CO)[C@@H](O)[C@H](O)[C@@H]2O)cc1 [Compound 56] | 5.3e-08 ± 2.3e-09 M | –
O=[N+]([O-])c1ccc(C#CCO[C@H]2O[C@H](CO)[C@@H](O)[C@H](O)[C@@H]2O)cc1 [Compound 57] | 8.16e-07 ± 1.05e-07 M | –
OCC#Cc1ccc(O[C@H]2O[C@H](CO)[C@@H](O)[C@H](O)[C@@H]2O)cc1 [Compound 61] | 3.69e-08 ± 3e-09 M | Kd (FimH lectin domain [1]; Kd SPR (nM), Table S2): 6.9e-09 ± 1e-09 M
COCC#Cc1ccc(O[C@H]2O[C@H](CO)[C@@H](O)[C@H](O)[C@@H]2O)cc1 [Compound 62] | – | Kd SPR (nM) (FimH lectin domain [1]; Table S2): nf; Kd SPR (nM) (FimH lectin domain [1]; solution affinity by SPR competition, Tables 1-3): nf *; Kd (FimH): 0.0595 ± 0.0023 µM
